Experimental data from ChEMBL document CHEMBL1201862, “PubChem BioAssay data set” (2004).
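Results reflect a 48-hour exposure of cells in 96-well plates to compound at five concentrations. Abbreviation: GI50, concentration required for 50% inhibition of growth.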 Calls of active or inactive are those of the source. Cut-off read from the data, not from the text of the source: active = GI50 up to about 1.1 µM and inactive = higher.

Columns and labels:
Experiment in all cases: inhibition of tumour cell growth, NCI panel, 48 h
BT-549 = tested on: BT-549
CCRF-CEM = tested on: CCRF-CEM
EKVX = tested on: EKVX
HT-29 = tested on: HT-29
Hs-578T = tested on: Hs-578T
IGROV-1 = tested on: IGROV-1
M14 = tested on: M14
MCF7 = tested on: MCF7
MDA-MB-231 = tested on: MDA-MB-231
MDA-MB-435 = tested on: MDA-MB-435
Malme-3M = tested on: Malme-3M
NCI-H23 = tested on: NCI-H23
OVCAR-8 = tested on: OVCAR-8
SK-MEL-2 = tested on: SK-MEL-2
SK-MEL-5 = tested on: SK-MEL-5
SK-OV-3 = tested on: SK-OV-3
SNB-19 = tested on: SNB-19
SNB-75 = tested on: SNB-75
T47D = tested on: T47D

Row | SMILES | GI50 (BT-549) | GI50 (CCRF-CEM) | GI50 (EKVX) | GI50 (HT-29) | GI50 (Hs-578T) | GI50 (IGROV-1) | GI50 (M14) | GI50 (MCF7) | GI50 (MDA-MB-231) | GI50 (MDA-MB-435) | GI50 (Malme-3M) | GI50 (NCI-H23) | GI50 (OVCAR-8) | GI50 (SK-MEL-2) | GI50 (SK-MEL-5) | GI50 (SK-OV-3) | GI50 (SNB-19) | GI50 (SNB-75) | GI50 (T47D)
1 | Fc1cccc2nc(-c3ccccc3)cc(OCc3ccccc3)c12 | > 100 µM (inactive) | > 100 µM (inactive) | 20.8 µM (inactive) | > 100 µM (inactive) | > 100 µM (inactive) | > 100 µM (inactive) | > 100 µM (inactive) | 59.7 µM (inactive) | > 100 µM (inactive) | > 100 µM (inactive) | > 100 µM (inactive) | > 100 µM (inactive) | > 100 µM (inactive) | > 100 µM (inactive) | 28.4 µM (inactive) | > 100 µM (inactive) | > 100 µM (inactive) | 65.6 µM (inactive) | 89.3 µM (inactive)
2 | C(=C\c1nccs1)/c1cccc(/C=C/c2nccs2)n1 | > 50 µM (inactive) | > 50 µM (inactive) | 49 µM (inactive) | > 50 µM (inactive) | > 50 µM (inactive) | 26.5 µM (inactive) | > 50 µM (inactive) | 18.8 µM (inactive) | > 50 µM (inactive) | > 50 µM (inactive) | > 50 µM (inactive) | > 50 µM (inactive) | 47.9 µM (inactive) | > 50 µM (inactive) | > 50 µM (inactive) | > 50 µM (inactive) | > 50 µM (inactive) | 22 µM (inactive) | 31.2 µM (inactive)
3 | O=C(O)COc1c(Cl)cc(Cl)c2cccnc12 | > 100 µM (inactive) | > 100 µM (inactive) | > 100 µM (inactive) | > 100 µM (inactive) | > 100 µM (inactive) | 96.4 µM (inactive) | > 100 µM (inactive) | > 100 µM (inactive) | > 100 µM (inactive) | > 100 µM (inactive) | > 100 µM (inactive) | > 100 µM (inactive) | > 100 µM (inactive) | > 100 µM (inactive) | > 100 µM (inactive) | > 100 µM (inactive) | > 100 µM (inactive) | > 100 µM (inactive) | > 100 µM (inactive)
4 | CSc1nc(Cl)c2c(n1)Sc1nc3ccccc3n1C2O (stereo not given) | 4.73 µM (inactive) | 1.36 µM (inactive) | 33.4 µM (inactive) | 3.52 µM (inactive) | 5.36 µM (inactive) | 3.87 µM (inactive) | 3.46 µM (inactive) | 4.02 µM (inactive) | 4.88 µM (inactive) | 3.63 µM (inactive) | 4.91 µM (inactive) | 5.65 µM (inactive) | 2.84 µM (inactive) | 4.38 µM (inactive) | 2.5 µM (inactive) | 47.9 µM (inactive) | 14.4 µM (inactive) | 10.6 µM (inactive) | 15.3 µM (inactive)
5 | CC1(C)OC(C(=O)Nc2cc3c4ccccc4ccc3c3ccccc23)C(C(=O)N2CCCCC2)O1 (stereo not given) | 47 µM (inactive) | 0.537 µM (active) | > 54.8 µM (inactive) | 0.74 µM (active) | 3.72 µM (inactive) | 1.32 µM (inactive) | 3.56 µM (inactive) | 1.16 µM (inactive) | > 38.9 µM (inactive) | 2.7 µM (inactive) | > 100 µM (inactive) | > 21.4 µM (inactive) | 0.957 µM (active) | 9.18 µM (inactive) | 1.98 µM (inactive) | 20.6 µM (inactive) | 4.2 µM (inactive) | 2.74 µM (inactive) | 6.62 µM (inactive)
6 | O=C([O-])Cc1ccccc1.[Na+] [SODIUM PHENYLACETATE] | 723 µM (inactive) | 671 µM (inactive) | > 2000 µM (inactive) | 931 µM (inactive) | 385 µM (inactive) | 597 µM (inactive) | > 2000 µM (inactive) | > 2000 µM (inactive) | 174 µM (inactive) | 1000 µM (inactive) | 706 µM (inactive) | > 2000 µM (inactive) | 611 µM (inactive) | > 2000 µM (inactive) | 869 µM (inactive) | > 2000 µM (inactive) | > 2000 µM (inactive) | 776 µM (inactive) | 774 µM (inactive)
7 | CCC/C(Cl)=N\OC(=O)Nc1ccc(OC(F)(F)F)cc1 | 20.9 µM (inactive) | 2.47 µM (inactive) | 10.1 µM (inactive) | 18.2 µM (inactive) | 28.1 µM (inactive) | 6.93 µM (inactive) | 6.52 µM (inactive) | 8.26 µM (inactive) | 9.93 µM (inactive) | 22.1 µM (inactive) | 1.68 µM (inactive) | 21.4 µM (inactive) | 16.7 µM (inactive) | 17.6 µM (inactive) | 5.4 µM (inactive) | 18.5 µM (inactive) | 30.3 µM (inactive) | 15.6 µM (inactive) | 2.79 µM (inactive)
8 | NC1=NC(c2ccc(Cl)cc2)N(c2ccc(S(N)(=O)=O)cc2)C(N)=N1 (stereo not given) | > 100 µM (inactive) | > 100 µM (inactive) | > 100 µM (inactive) | > 100 µM (inactive) | > 100 µM (inactive) | > 100 µM (inactive) | > 100 µM (inactive) | > 100 µM (inactive) | > 100 µM (inactive) | > 100 µM (inactive) | > 100 µM (inactive) | > 100 µM (inactive) | > 100 µM (inactive) | > 100 µM (inactive) | > 100 µM (inactive) | > 100 µM (inactive) | > 100 µM (inactive) | > 100 µM (inactive) | > 100 µM (inactive)
9 | COc1ccc(-c2cc(-c3ccccc3)nc(N)n2)c(O)c1 | 1.7 µM (inactive) | 4.59 µM (inactive) | > 24.9 µM (inactive) | > 26.9 µM (inactive) | > 100 µM (inactive) | 10.6 µM (inactive) | > 27.3 µM (inactive) | 0.984 µM (active) | > 26.2 µM (inactive) | 3.56 µM (inactive) | > 100 µM (inactive) | > 100 µM (inactive) | 8.69 µM (inactive) | 7.08 µM (inactive) | 7.16 µM (inactive) | 7 µM (inactive) | > 82.8 µM (inactive) | 28.8 µM (inactive) | 5.86 µM (inactive)
10 | C(CCc1nnc2c(n1)CCCC2)Cc1nnc2c(n1)CCCC2 | > 100 µM (inactive) | > 100 µM (inactive) | > 100 µM (inactive) | > 100 µM (inactive) | > 100 µM (inactive) | > 100 µM (inactive) | > 100 µM (inactive) | > 100 µM (inactive) | > 100 µM (inactive) | 88.7 µM (inactive) | > 100 µM (inactive) | > 100 µM (inactive) | > 100 µM (inactive) | > 100 µM (inactive) | > 100 µM (inactive) | > 100 µM (inactive) | > 100 µM (inactive) | > 100 µM (inactive) | > 100 µM (inactive)
11 | O=C1CCc2cc3c(cc21)CC1(Cc2cc4c(cc2C1)CCCC4)C3 | > 100 µM (inactive) | 72.3 µM (inactive) | > 100 µM (inactive) | 34.8 µM (inactive) | 30.5 µM (inactive) | 97.5 µM (inactive) | 30.3 µM (inactive) | 44.5 µM (inactive) | 19.4 µM (inactive) | 4.68 µM (inactive) | 90.6 µM (inactive) | > 100 µM (inactive) | > 100 µM (inactive) | > 100 µM (inactive) | 24.6 µM (inactive) | 79.4 µM (inactive) | 45.1 µM (inactive) | 14.6 µM (inactive) | 32.1 µM (inactive)
12 | COC1=CC(=O)c2nc3ccccc3c3ccnc1c23 | 14.6 µM (inactive) | 4.4 µM (inactive) | 12.6 µM (inactive) | 3.24 µM (inactive) | 5.48 µM (inactive) | 3.56 µM (inactive) | 2.9 µM (inactive) | 1.95 µM (inactive) | 7.8 µM (inactive) | 0.187 µM (active) | 1.58 µM (inactive) | 1.35 µM (inactive) | 3.26 µM (inactive) | 5.64 µM (inactive) | 0.653 µM (active) | 26.9 µM (inactive) | 12.4 µM (inactive) | 9.89 µM (inactive) | 5.71 µM (inactive)
13 | CC(C)(C)c1ccc(S(=O)(=O)N2C(c3cccc(C4CC[C@@H](C(=O)O)N4S(=O)(=O)c4ccc(C(C)(C)C)cc4)c3)CC[C@H]2C(=O)O)cc1 (stereo not given in full) | 50 µM (inactive) | 33 µM (inactive) | 30.1 µM (inactive) | 47.8 µM (inactive) | 47 µM (inactive) | 33.5 µM (inactive) | 54.1 µM (inactive) | 44 µM (inactive) | > 100 µM (inactive) | 54.7 µM (inactive) | 87.1 µM (inactive) | 40.2 µM (inactive) | 67.5 µM (inactive) | 30.1 µM (inactive) | 57.7 µM (inactive) | > 100 µM (inactive) | 59.3 µM (inactive) | > 100 µM (inactive) | 29.9 µM (inactive)
14 | CC1=CC[C@H](C[C@H](C#CCCCC2OCCO2)O[Si](C(C)C)(C(C)C)C(C)C)C(=O)CC1 | > 100 µM (inactive) | > 100 µM (inactive) | > 100 µM (inactive) | > 100 µM (inactive) | > 100 µM (inactive) | > 100 µM (inactive) | > 100 µM (inactive) | > 100 µM (inactive) | > 100 µM (inactive) | > 100 µM (inactive) | > 100 µM (inactive) | > 100 µM (inactive) | > 100 µM (inactive) | > 100 µM (inactive) | > 100 µM (inactive) | > 100 µM (inactive) | > 100 µM (inactive) | > 100 µM (inactive) | > 100 µM (inactive)
15 | [N-]=[N+]=Nc1c([N+](=O)[O-])c(Cl)nc2ccccc12 | 1.74 µM (inactive) | 0.376 µM (active) | 3.01 µM (inactive) | 2.18 µM (inactive) | 3.12 µM (inactive) | 2.09 µM (inactive) | 1.44 µM (inactive) | 1.54 µM (inactive) | 1.85 µM (inactive) | 2.38 µM (inactive) | 1.69 µM (inactive) | 2.6 µM (inactive) | 1.87 µM (inactive) | 1.4 µM (inactive) | 8.99 µM (inactive) | 14.5 µM (inactive) | 14.4 µM (inactive) | 8.93 µM (inactive) | 2.07 µM (inactive)
